Experimental data from patent publication US8772323B2, “Benzoxazole- and tetrahydrobenzoxazole-substituted pyridazinones as GPR119 agonists” (Boehringer Ingelheim International GmbH, priority 2010, dated 2014).

What was measured:
human GPR119 = human GPR119 (Homo sapiens (Human), UniProt Q8TDV5); assay: AlphaScreen cAMP assay in Min-6/hGPR119 cells (GPR119 activation, intracellular cAMP); assay type: cell-based; conditions: MIN6 cells stably transfected with human GPR119; 45 minutes' incubation at RT; AlphaScreen cAMP Assay Kit
Procedure, shortened: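 MIN6 cells stably expressing human GPR119 plated 10000 cells/well and held 24 h at 37° C. Compounds applied in stimulating buffer, pH 7.4, with 0.5 mM IBMX, 0.1% BSA, 1% DMSO final, for 45 min at RT. Intracellular cAMP read by AlphaScreen.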

Chain of human GPR119 (Q8TDV5 whole entry): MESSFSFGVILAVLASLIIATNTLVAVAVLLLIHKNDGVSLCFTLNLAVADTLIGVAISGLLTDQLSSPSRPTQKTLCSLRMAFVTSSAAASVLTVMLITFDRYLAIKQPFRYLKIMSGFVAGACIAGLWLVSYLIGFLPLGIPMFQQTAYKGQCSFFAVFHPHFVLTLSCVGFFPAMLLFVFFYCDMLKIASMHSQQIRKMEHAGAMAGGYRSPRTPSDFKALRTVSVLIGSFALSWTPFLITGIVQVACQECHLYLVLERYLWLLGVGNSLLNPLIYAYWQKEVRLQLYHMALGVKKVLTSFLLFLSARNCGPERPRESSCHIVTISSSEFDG

EC50 (human GPR119) | melting point | SMILES
346 nM | 209 °C | CC1CC(=O)NN=C1c1ccc2nc(-c3ccco3)oc2c1 (centres unmarked) [Example 108, 5-methyl-6-(2-furan-2-yl-benzoxazol-6-yl)-4,5-dihydro-2H-pyridazin-3-one]
3450 nM | 209 °C | CC1CC(=O)NN=C1c1ccc2nc(N3CCOCC3)oc2c1 (centres unmarked) [Example 116, 5-methyl-6-(2-morpholine-1-yl-benzoxazol-6-yl)-4,5-dihydro-2H-pyridazin-3-one]
120 nM | 222 °C | CC1CC(=O)NN=C1c1ccc2nc(-c3cccs3)oc2c1 (centres unmarked) [Example 106, 5-methyl-6-(2-thiophen-2-yl-benzoxazol-6-yl)-4,5-dihydro-2H-pyridazin-3-one]
9390 nM | 213 °C | CC1CC(=O)NN=C1c1ccc2nc(N3CCNCC3)oc2c1 (centres unmarked) [Example 117, 5-methyl-6-(2-piperazin-1-yl-benzoxazol-6-yl)-4,5-dihydro-2H-pyridazin-3-one]
1410 nM | 293 °C | CC1CC(=O)NN=C1c1ccc2nc(-c3ccc(N)nc3)oc2c1 (centres unmarked) [Example 109, 6-[2-(6-amino-pyridin-3-yl)-benzoxazol-6-yl]-5-methyl-4,5-dihydro-2H-pyridazin-3-one]
1900 nM | 218 °C | CC1CC(=O)NN=C1c1ccc2nc(N3CCSCC3)oc2c1 (centres unmarked) [Example 113, 5-methyl-6-(2-thiomorpholin-4-yl-benzoxazol-6-yl)-4,5-dihydro-2H-pyridazin-3-one]
4540 nM | 218 °C | CC1CC(=O)NN=C1c1ccc2nc(-c3cccnc3)oc2c1 (centres unmarked) [Example 110, 5-methyl-6-(2-pyridin-3-yl-benzoxazol-6-yl)-4,5-dihydro-2H-pyridazin-3-one]
